Here are results for ten substances from patent US20130303378A1, “Biocide Compositions Comprising Esters Of Ethoxylated Alcohols” (priority 2010, published 2013).

For experiment [1], the system named is barley powdery mildew (Blumeria graminis f. sp. hordei). The experiment is described as follows: Curative greenhouse trial with Opus SC125 plus adjuvant against barley powdery mildew. The class given is in vivo, Blumeria graminis f. sp. hordei on barley. Conditions: Opus 10 g/ha, adjuvant 50 ml/ha, inoculation 2 days prior to application, assessment 14 DAT, mildew pustules per leaf. As for the experimental part:
Opus SC125, a commercial available pesticide sold by BASF, was tested to control barley powdery mildew (BPM) in a curative greenhouse trial, Azoxystrobin SC 250 in a protective trial. In each case, barley was cultivated in a substrate “Frustorder Erde” for three weeks. Each treatment was replicated 14 times. The adjuvant dose rate in each treatment was 50 ml/ha.
Inoculation of the leaves with powdery mildew (Blumeria graminis f. sp. hordei) was done 2 days prior to application to test Opus' curative action. From the stem, leaf segments were cut off with a length of 10 cm using the flag leaf (F) and 2nd leaf (F-1). Altogether, the leaves of each stem were placed on benzimidazol agar i.e. 0.5% Agar with 40 ppm benzimidazol. The concentration of Opus for the leaf application was 10 g/ha. Assessment 14 days after treatment (14 DAT) of the efficacy against powdery mildew was done by counting the mildew pustules per leaf on a length of 7 cm. The assessment of the infection rate was conducted by a trained biologist.

Experiment [2] concerns barley powdery mildew. The experiment is described as follows: Protective greenhouse trial with Amistar (Azoxystrobin SC 250) plus adjuvant against barley powdery mildew. In kind it is in vivo, barley powdery mildew on barley. The conditions noted are these: azoxystrobin 5 g/ha, adjuvant 50 ml/ha, leaf segments cut 5 h after application, incubation 10 d after inoculation. As for the experimental part:
Opus SC125, a commercial available pesticide sold by BASF, was tested to control barley powdery mildew (BPM) in a curative greenhouse trial, Azoxystrobin SC 250 in a protective trial. In each case, barley was cultivated in a substrate “Frustorder Erde” for three weeks. Each treatment was replicated 14 times. The adjuvant dose rate in each treatment was 50 ml/ha. 5 h after application with the equivalent of 5 g/ha azoxystrobin, leaf segments were cut off at a length of 7 cm from the stem. The leaves of the F and F-1 leaf were placed on agar. After the inoculation, the incubation time was 10 d. The assessment of the infection rate was conducted by a trained biologist.

The subject of experiment [3] is barley powdery mildew. Description: Performance in both trials together (curative Opus and protective Amistar). The class given is in vivo, barley powdery mildew on barley. The conditions noted are these: for Sum of infection rates: sum of OPUS and AMISTAR infection rates; for adjuvancy effect considering the performance in both trials: assessment in words, Opus and Amistar trials. As for the experimental part: Opus SC125, a commercial available pesticide sold by BASF, was tested to control barley powdery mildew (BPM) in a curative greenhouse trial, Azoxystrobin SC 250 in a protective trial. In each case, barley was cultivated in a substrate “Frustorder Erde” for three weeks. Each treatment was replicated 14 times. The adjuvant dose rate in each treatment was 50 ml/ha. Inoculation of the leaves with powdery mildew (Blumeria graminis f. sp. hordei) was done 2 days prior to application to test Opus' curative action. From the stem, leaf segments were cut off with a length of 10 cm using the flag leaf (F) and 2nd leaf (F-1). Altogether, the leaves of each stem were placed on benzimidazol agar i.e. 0.5% Agar with 40 ppm benzimidazol. The concentration of Opus for the leaf application was 10 g/ha. […] The assessment of the infection rate was conducted by a trained biologist. 5 h after application with the equivalent of 5 g/ha azoxystrobin, leaf segments were cut off at a length of 7 cm from the stem. The leaves of the F and F-1 leaf were placed on agar. After the inoculation, the incubation time was 10 d. The assessment of the infection rate was conducted by a trained biologist.

Consider C12/14 + 5EO-C8/10 Ester [Example C2], for which, in experiment [1], the “Infection rate of barley powdery mildew after treatment with fungicides, OPUS” value (shortened to “Infection rate of barley powdery mildew … OPUS”) came to 24%. The “Infection rate of barley powdery mildew after treatment with fungicides, AMISTAR” value (from here on “Infection rate … AMISTAR”) in experiment [2] worked out at 3%. Besides, the “Sum of infection rates” value in experiment [3] turned out to be 27%.
On to C12/14 + 10EO-C8/10 Ester [Example C3], for which, in experiment [1], the “Infection rate of barley powdery mildew … OPUS” value was determined as 29%. Moreover, in experiment [2], the “Infection rate … AMISTAR” value is recorded as 2%. The “Sum of infection rates” value in experiment [3] is on record as 31%.
C12/14 + 20EO-C8/10 Ester [Example C4]: the “Infection rate of barley powdery mildew … OPUS” value in experiment [1] turned out to be 15%. Also, the “Infection rate … AMISTAR” value in experiment [2] is 18%. For the same substance, the “Sum of infection rates” value in experiment [3] is recorded as 33%.
In the same order, the values of Decyl + 10EO-C8/10 Ester [Example 4] are 22%, 0% and 22%.
As for Decyl + 20EO-C8/10 Ester [Example 5], the “Infection rate of barley powdery mildew … OPUS” value in experiment [1] is recorded as 11%. Besides, the “Infection rate … AMISTAR” value in experiment [2] was determined as 12%. For the same substance, the “Sum of infection rates” value in experiment [3] was 23%.
Consider Isoamyl + 5EO oleate [Example C5], for which the “Infection rate of barley powdery mildew … OPUS” value in experiment [1] is on record as 17%. In addition, the “Infection rate … AMISTAR” value in experiment [2] is given as 17%. Moreover, in experiment [3], the “adjuvancy effect considering the performance in both trials” value is “does not give acceptable results” and the “Sum of infection rates” value came to 34%.
Turning to Isoamyl + 10EO laurate [Example 3], in experiment [1], the “Infection rate of barley powdery mildew … OPUS” value was found to be 4%. Further, in experiment [2], the “Infection rate … AMISTAR” value was 14%. For the same substance, in experiment [3], the “Sum of infection rates” value is 18%.
Taken in the same sequence, the figures for Isoamyl + 20EO laurate [Example 2] were 12%, 0% and 12%.
On to Isoamyl + 20EO oleate [Example 1], for which, in experiment [1], the “Infection rate of barley powdery mildew … OPUS” value was determined as 7%. The “Infection rate … AMISTAR” value in experiment [2] stood at 0%. Moreover, in experiment [3], the “adjuvancy effect considering the performance in both trials” value is “best adjuvancy effect” and the “Sum of infection rates” value is reported as 7%.
Isodecyl + 6EO-C8/10 Ester [Example C1]: in experiment [1], the “Infection rate of barley powdery mildew … OPUS” value is recorded as 21%. Further, the “Infection rate … AMISTAR” value in experiment [2] was 5%. In addition, the “Sum of infection rates” value in experiment [3] is 26%.
